Active and inactive are the calls of the source.
Legend:
Caspase-7 = molecular target: T1, Caspase-7 (Homo sapiens, UniProt P55210); experiment: procaspase-7 activators, dose response, counter-screen for procaspase-3 activator project, biochemical, absorbance (AID 489013)
T1 sequence (P55210 whole entry): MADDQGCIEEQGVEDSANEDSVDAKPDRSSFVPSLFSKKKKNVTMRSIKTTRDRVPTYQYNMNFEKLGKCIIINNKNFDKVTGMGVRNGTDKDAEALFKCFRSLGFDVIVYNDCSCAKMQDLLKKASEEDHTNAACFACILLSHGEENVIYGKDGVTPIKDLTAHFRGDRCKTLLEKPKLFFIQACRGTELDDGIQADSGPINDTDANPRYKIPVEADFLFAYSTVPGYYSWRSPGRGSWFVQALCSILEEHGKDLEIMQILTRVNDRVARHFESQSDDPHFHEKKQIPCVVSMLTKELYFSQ

Streptococcus = experiment: Group A Streptococcus viability loss, dose response, counter-screen for streptokinase expression inhibitor project, luminescence, BacTiterGlo (AID 1915); assay type: functional, organism-based;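 note: potency for reduction of bacterial viability or growth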
[1] = tested on: Streptococcus sp. 'group A'; experiment: growth inhibition of control SK(-) GAS strain, dose response, counter-screen for streptokinase expression inhibitor project, luminescence, kanamycin, BacTiterGlo, confirmation (AID 1900); assay type: functional, organism-based
Caspase-3 = molecular target: T2, Caspase-3 (Homo sapiens, UniProt P42574); experiment: procaspase-3 activators, dose response, biochemical, absorbance (AID 489014)
T2 sequence (P42574 whole entry): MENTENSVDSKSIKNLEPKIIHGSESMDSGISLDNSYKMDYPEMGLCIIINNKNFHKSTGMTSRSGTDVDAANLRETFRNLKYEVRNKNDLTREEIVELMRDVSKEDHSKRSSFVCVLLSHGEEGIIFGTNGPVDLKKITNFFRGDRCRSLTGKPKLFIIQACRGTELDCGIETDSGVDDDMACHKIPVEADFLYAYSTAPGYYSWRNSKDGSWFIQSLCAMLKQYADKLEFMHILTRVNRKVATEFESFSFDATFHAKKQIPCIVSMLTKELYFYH

Perilipin-1/ABHD5 = Perilipin-1/ABHD5 (Homo sapiens, UniProt O60240+Q8WTS1); experiment: Luminescence-based biochemical high throughput dose response assay for inhibitors of the interaction of the lipase co-activator protein, abhydrolase domain containing 5 (ABHD5) with perilipin-1 (PLIN1) (2K validation set). [Related pubchem assays (depositor defined):AID493027, AID493057]
[2] = molecular target: 1-acylglycerol-3-phosphate O-acyltransferase ABHD5/Perilipin-5 (Homo sapiens, UniProt Q00G26+Q8WTS1); experiment: Luminescence-based biochemical high throughput dose response assay for inhibitors of the interaction of the lipase co-activator protein, abhydrolase domain containing 5 (ABHD5) with perilipin-5 (MLDP; PLIN5) (2K validation set). [Related pubchem assays (depositor defined):AID493035, AID493241]
Coagulation factor XII = molecular target: T3, Coagulation factor XII (Homo sapiens, UniProt P00748); experiment: FXIIa inhibitor potency, concentration-response, biochemical (AID 716); assay type: functional
T3 sequence (P00748 whole entry): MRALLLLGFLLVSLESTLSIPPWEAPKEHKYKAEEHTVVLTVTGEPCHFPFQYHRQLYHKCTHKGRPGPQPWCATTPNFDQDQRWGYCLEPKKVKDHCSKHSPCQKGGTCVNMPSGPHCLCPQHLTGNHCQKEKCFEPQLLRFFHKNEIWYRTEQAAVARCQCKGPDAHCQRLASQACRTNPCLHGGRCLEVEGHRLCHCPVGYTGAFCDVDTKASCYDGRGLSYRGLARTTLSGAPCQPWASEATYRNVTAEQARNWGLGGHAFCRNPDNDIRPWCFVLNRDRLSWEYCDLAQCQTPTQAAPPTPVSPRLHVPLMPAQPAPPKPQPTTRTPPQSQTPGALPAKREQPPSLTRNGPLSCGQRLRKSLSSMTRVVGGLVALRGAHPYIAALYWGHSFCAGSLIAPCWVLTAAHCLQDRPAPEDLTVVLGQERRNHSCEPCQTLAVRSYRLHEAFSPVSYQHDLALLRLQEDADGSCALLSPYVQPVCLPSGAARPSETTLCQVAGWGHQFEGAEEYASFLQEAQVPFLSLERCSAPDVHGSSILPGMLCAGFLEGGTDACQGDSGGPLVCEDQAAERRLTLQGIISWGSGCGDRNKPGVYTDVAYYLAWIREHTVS

Integrin alpha-L = Integrin alpha-L (Mus musculus, UniProt P24063); experiment: modulators of CD8 T cell-vesicle binding, dose response, powder samples, mouse 2C CD8+ cells (AID 504565); assay type: functional
T-cell = experiment: inhibitors of CD8+ T cell–vesicle binding, dose response, mouse 2C CD8+ T cells, flow cytometry (AID 485284); assay type: functional
Hexokinase = Hexokinase (Trypanosoma brucei, UniProt Q38C41); experiment: Confirmation assay for inhibitors of Trypanosoma brucei hexokinase 1-Analogue-first series. [Related pubchem assays (depositor defined):AID1430, AID1632, AID2516, AID2560, AID2579, AID2600, AID449725, AID492951]; assay type: functional
[3] = molecular target: T4, Tyrosine-protein phosphatase non-receptor type 7 (Homo sapiens, UniProt P35236); experiment: redox-dependent HePTP inhibition, mechanism study, biochemical, fluorescence (AID 2068); assay type: functional
T4 sequence (P35236 whole entry): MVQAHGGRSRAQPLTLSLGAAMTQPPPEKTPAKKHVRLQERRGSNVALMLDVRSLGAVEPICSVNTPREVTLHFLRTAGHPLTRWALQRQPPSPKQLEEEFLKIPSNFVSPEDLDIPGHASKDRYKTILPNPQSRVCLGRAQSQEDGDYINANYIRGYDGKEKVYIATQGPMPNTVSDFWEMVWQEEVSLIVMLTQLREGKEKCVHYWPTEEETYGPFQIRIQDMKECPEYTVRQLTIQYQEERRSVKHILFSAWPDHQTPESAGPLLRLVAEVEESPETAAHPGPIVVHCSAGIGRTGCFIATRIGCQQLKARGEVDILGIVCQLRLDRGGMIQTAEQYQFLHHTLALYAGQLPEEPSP

[4] = inhibition of K1F phage lysis, E. coli UTI89, bacterial capsule biogenesis inhibitors, alamar blue (AID 488966); assay type: functional

Sequence of Integrin alpha-L (P24063 whole entry): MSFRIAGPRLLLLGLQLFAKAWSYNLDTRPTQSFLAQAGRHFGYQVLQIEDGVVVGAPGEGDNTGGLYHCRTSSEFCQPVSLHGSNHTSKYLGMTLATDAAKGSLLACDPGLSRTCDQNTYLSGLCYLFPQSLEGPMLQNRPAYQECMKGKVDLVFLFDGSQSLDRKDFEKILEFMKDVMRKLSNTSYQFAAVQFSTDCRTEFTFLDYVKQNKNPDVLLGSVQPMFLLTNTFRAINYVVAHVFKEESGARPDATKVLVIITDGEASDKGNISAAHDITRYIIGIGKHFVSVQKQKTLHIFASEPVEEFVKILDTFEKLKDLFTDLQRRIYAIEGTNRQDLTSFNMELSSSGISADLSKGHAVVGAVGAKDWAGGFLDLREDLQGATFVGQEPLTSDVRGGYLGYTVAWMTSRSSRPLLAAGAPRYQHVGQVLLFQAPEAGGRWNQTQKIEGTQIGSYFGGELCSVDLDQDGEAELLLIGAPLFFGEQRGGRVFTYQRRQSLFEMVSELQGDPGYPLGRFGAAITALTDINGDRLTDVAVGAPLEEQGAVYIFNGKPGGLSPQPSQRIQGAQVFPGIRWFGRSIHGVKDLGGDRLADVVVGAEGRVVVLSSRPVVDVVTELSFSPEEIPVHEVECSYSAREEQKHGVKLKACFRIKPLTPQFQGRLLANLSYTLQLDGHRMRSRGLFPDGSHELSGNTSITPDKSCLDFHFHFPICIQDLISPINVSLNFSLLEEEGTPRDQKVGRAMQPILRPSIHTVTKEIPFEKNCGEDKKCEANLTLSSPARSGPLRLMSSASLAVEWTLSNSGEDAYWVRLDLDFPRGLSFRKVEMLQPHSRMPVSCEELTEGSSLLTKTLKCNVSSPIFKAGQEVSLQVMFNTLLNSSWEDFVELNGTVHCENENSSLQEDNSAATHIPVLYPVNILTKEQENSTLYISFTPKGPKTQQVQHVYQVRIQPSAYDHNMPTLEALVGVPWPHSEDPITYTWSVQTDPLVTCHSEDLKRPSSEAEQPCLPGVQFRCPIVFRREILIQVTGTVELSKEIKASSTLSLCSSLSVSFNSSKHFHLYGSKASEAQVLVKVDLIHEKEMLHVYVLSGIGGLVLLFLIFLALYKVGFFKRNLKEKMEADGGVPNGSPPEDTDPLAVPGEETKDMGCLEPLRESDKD
Sequence of Hexokinase (Q38C41 whole entry): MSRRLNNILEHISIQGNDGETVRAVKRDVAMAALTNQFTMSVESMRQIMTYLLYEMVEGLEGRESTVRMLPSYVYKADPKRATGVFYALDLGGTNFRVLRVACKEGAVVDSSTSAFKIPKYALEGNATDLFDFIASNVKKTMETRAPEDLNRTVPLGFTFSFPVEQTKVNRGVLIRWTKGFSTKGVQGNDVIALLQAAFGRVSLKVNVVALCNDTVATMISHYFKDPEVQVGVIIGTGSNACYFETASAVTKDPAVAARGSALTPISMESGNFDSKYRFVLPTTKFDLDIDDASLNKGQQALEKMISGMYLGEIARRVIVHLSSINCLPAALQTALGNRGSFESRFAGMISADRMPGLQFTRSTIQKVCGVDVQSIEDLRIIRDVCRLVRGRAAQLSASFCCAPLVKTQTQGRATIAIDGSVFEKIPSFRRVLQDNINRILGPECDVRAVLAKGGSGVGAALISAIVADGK
Sequence of Perilipin-1/ABHD5 (Q8WTS1 whole entry, the tested form may be a part): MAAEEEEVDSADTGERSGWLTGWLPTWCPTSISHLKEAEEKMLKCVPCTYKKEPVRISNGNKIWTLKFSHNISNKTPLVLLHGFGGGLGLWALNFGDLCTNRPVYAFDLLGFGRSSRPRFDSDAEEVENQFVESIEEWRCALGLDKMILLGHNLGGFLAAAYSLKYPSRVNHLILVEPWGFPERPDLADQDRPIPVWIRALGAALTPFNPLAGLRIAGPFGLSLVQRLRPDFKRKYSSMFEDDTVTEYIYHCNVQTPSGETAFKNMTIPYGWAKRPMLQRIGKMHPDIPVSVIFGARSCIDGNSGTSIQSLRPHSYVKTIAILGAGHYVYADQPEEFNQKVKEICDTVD
Sequence of Perilipin-1/ABHD5 (O60240 whole entry, the tested form may be a part): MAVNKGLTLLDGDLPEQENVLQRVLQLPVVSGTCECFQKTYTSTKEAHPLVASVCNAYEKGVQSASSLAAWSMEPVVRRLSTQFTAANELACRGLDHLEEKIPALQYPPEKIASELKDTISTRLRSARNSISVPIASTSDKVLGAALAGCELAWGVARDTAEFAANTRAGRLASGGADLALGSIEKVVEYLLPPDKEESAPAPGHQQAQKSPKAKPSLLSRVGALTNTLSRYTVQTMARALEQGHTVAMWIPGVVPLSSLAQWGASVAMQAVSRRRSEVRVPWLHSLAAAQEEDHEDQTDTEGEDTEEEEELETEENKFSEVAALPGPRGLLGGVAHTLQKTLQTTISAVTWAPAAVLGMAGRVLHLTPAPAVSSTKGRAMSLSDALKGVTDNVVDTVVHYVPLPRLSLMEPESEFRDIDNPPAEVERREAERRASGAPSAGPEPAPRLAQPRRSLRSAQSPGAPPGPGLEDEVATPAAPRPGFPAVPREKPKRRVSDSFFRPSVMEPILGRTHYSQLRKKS
Sequence of 1-acylglycerol-3-phosphate O-acyltransferase ABHD5/Perilipin-5 (Q00G26 whole entry, the tested form may be a part): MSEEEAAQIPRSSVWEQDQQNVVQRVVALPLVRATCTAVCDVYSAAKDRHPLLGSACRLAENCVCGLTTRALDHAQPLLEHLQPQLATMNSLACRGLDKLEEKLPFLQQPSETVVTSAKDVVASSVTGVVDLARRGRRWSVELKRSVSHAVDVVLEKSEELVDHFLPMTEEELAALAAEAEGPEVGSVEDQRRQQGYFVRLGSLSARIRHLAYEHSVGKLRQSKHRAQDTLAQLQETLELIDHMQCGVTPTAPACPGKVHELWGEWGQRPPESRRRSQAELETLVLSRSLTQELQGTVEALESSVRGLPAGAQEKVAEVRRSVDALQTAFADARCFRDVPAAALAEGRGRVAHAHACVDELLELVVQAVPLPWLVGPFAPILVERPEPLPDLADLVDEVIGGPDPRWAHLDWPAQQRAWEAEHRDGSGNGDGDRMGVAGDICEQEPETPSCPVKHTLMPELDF
Sequence of 1-acylglycerol-3-phosphate O-acyltransferase ABHD5/Perilipin-5 (Q8WTS1 whole entry, the tested form may be a part): as the sequence (Q8WTS1 whole entry, the tested form may be a part) above

## O=C1C2C(c3ccccc3)=NN(c3ccccc3)C2C(=O)N1c1ccccc1 (configuration not stated)
Caspase-7
  EC50: > 85.3 µM (inactive)
Streptococcus
  EC50: 5.11 µM (active)
[1]
  EC50: 1.02 µM (active)
Caspase-3
  EC50: > 85.3 µM (inactive)

## COc1ccc(O)c(C(=O)/C=C/c2cc3ccccc3o2)c1
Perilipin-1/ABHD5
  IC50: 4.8 µM (active)
[2]
  IC50: 4.85 µM (active)

## COc1ccc(C(=O)c2c(C)oc3ccc(O)c(CN4CCOCC4)c23)cc1
Coagulation factor XII
  IC50: > 50 µM (inactive)

## O=C(O)C1CCC(Cn2c(SCc3cc(=O)n4cc(Cl)ccc4n3)nc3ccsc3c2=O)CC1 (configuration not stated)
Integrin alpha-L
  EC50: 51.9 µM (inactive)
T-cell
  EC50: 18.2 µM (active)

## O=C(Cn1sc2cc(F)ccc2c1=O)Nc1ccccc1
Hexokinase
  IC50: 4.34 µM (active)

## CNC(=O)Nc1ccc2nc(-c3ccco3)c(-c3ccco3)nc2c1
[3]
  IC50: 0.816 µM (active)

## Cc1cc(C(=O)NN=Cc2ccc(OC(=O)c3ccco3)cc2)c(C)o1
[4]
  IC50: > 150 µM (active)

From ChEMBL document CHEMBL1201862, “PubChem BioAssay data set” (2004)
